C[C@]12CC[C@@H]3c4ccc(O)cc4CC[C@H]3[C@@H]1C[C@@H](O)[C@@H]2O
solubility (mole fraction)
Conditions | 293.2 K | 298.2 K | 303.2 K | 308.2 K | 313.2 K | 318.2 K | 323.2 K | 328.2 K
in 2-aminoethanol | 0.0111 | 0.0127 | 0.0148 | 0.018 | 0.0214 | 0.0254 | 0.0314 | 0.0363
in DMF | 0.00112 | 0.00158 | 0.00258 | 0.00426 | 0.00581 | 0.00958 | 0.013 | 0.018
in NMP | 0.000415 | 0.000677 | 0.00105 | 0.00174 | 0.00275 | 0.00364 | 0.00491 | 0.00718
in morpholine-4-carbaldehyde | 6.2e-05 | 0.00023 | 0.000652 | 0.00147 | 0.00343 | 0.00495 | 0.00726 | 0.0107
in n-dodecane | 0.00072 | 0.000779 | 0.00092 | 0.000956 | 0.00128 | 0.00179 | 0.00243 | 0.00285
in n-hexadecane | 0.00114 | 0.00147 | 0.00175 | 0.00219 | 0.00251 | 0.00299 | 0.00335 | 0.00382
in n-nonanol | 0.0074 | 0.00863 | 0.0104 | 0.0116 | 0.0131 | 0.0147 | 0.0168 | 0.0199
in n-octane | 0.000621 | 0.000735 | 0.000873 | 0.00103 | 0.00123 | 0.00138 | 0.00152 | 0.00186
in n-octanol | 0.00593 | 0.00678 | 0.00747 | 0.00868 | 0.0104 | 0.0121 | 0.0147 | 0.0171
in n-pentanol | 0.00243 | 0.00285 | 0.00367 | 0.00468 | 0.00594 | 0.00809 | 0.00967 | 0.0121
in sec-butanol | 0.00189 | 0.0025 | 0.0032 | 0.00403 | 0.00453 | 0.00533 | 0.00668 | 0.00812
in water | 0.000115 | 0.000135 | 0.000168 | 0.000191 | 0.000306 | 0.000422 | 0.000577 | 0.000803

C[C@@H]1CC[C@@]2(OC1)O[C@H]1C[C@H]3[C@@H]4CC=C5C[C@@H](O)CC[C@]5(C)[C@H]4CC[C@]3(C)[C@H]1[C@@H]2C
solubility (mole fraction)
Conditions | 293.2 K | 298.2 K | 303.2 K | 308.2 K | 313.2 K | 318.2 K | 323.2 K | 328.2 K
in 2-aminoethanol | 0.00142 | 0.00218 | 0.0042 | 0.00625 | 0.00807 | 0.00914 | 0.011 | 0.0132
in DMF | 0.00113 | 0.00159 | 0.00232 | 0.00369 | 0.00461 | 0.00587 | 0.00794 | 0.0116
in NMP | 0.0118 | 0.0128 | 0.0138 | 0.0148 | 0.0163 | 0.0178 | 0.0196 | 0.0219
in acetonitrile | 0.00359 | 0.00529 | 0.00675 | 0.00894 | 0.0125 | 0.0151 | 0.0188 | 0.0221
in morpholine-4-carbaldehyde | 0.00663 | 0.00809 | 0.00976 | 0.012 | 0.0147 | 0.0162 | 0.0181 | 0.0198
in n-dodecane | 0.000266 | 0.000351 | 0.000439 | 0.000542 | 0.000631 | 0.000743 | 0.000898 | 0.00105
in n-hexadecane | 0.000256 | 0.000373 | 0.000465 | 0.000626 | 0.000949 | 0.00131 | 0.00171 | 0.00244
in n-nonanol | 0.0067 | 0.00825 | 0.00965 | 0.011 | 0.0123 | 0.0132 | 0.0145 | 0.0155
in n-octane | 8.1e-05 | 0.00013 | 0.00016 | 0.00021 | 0.000302 | 0.000466 | 0.00068 | 0.000915
in n-octanol | 0.00348 | 0.00423 | 0.00516 | 0.0066 | 0.00842 | 0.00947 | 0.0104 | 0.0116
in sec-butanol | 0.000128 | 0.000229 | 0.000436 | 0.000784 | 0.00119 | 0.0017 | 0.00253 | 0.00366

Source: BigSolDB 2.1
